# Results: DBAASP
# Values joined by “and” are separate entries in the source; they are usually repeats but may differ in a detail not shown here. Identical values can stand only once.
# Tests used:
# Test in all cases: ≥ marks a high value that may be exact or a test limit, other limits are often not marked, values filed in µg/mL are converted to µM
# [1] = system: Streptococcus sanguinis
# [2] = system: Staphylococcus aureus
# [3] = system: Vibrio cholerae CUN 09
# [4] = system: Enterococcus faecium
# [5] = system: Streptococcus mutans
# [6] = system: Burkholderia cepacia
# [7] = system: Acinetobacter baumannii
# [8] = system: Pseudomonas aeruginosa CUN 4158-02
# [9] = system: Staphylococcus aureus ATCC 25923
# [10] = system: Klebsiella pneumoniae
# [11] = system: Candida albicans
# [12] = system: Escherichia coli ATCC 25922
# [13] = system: Moraxella catarrhalis
# [14] = system: Pseudomonas aeruginosa ATCC 27853
# [15] = system: Escherichia coli ESBL
# [16] = system: Salmonella enterica serovar Minnesota R60
# [17] = system: Staphylococcus aureus CUN 3792-99
# [18] = system: Acinetobacter baumannii ATCC 19506
# [19] = system: Bordetella bronchiseptica CUN 11844-99
# [20] = system: Staphylococcus aureus ATCC 43300
# [21] = system: Corynebacterium xerosis
# [22] = system: Candida albicans CAN105
# [23] = system: Pseudomonas aeruginosa K799
# [24] = system: Pseudomonas aeruginosa Z61
# [25] = system: Mycobacterium tuberculosis H37Rv
# [26] = system: Escherichia coli KF130
# [27] = system: Salmonella enterica subsp. enterica serovar Typhimurium ATCC 14028s
# [28] = system: Listeria monocytogenes NCTC 7973
# [29] = system: Pseudomonas aeruginosa H374
# [30] = system: Enterococcus faecalis C625
# [31] = system: Staphylococcus haemolyticus
# [32] = system: Staphylococcus aureus SAP 0017
# [33] = system: Enterococcus faecalis ATCC 29212
# [34] = system: Acinetobacter calcoaceticus ATCC 23055
# [35] = system: Pseudomonas aeruginosa H187
# [36] = system: Stenotrophomonas maltophilia ATCC 13637
# [37] = system: Staphylococcus epidermidis
# [38] = system: Streptococcus pyogenes ATCC 19615
# [39] = system: Escherichia coli KF111
# [40] = system: Acinetobacter calcoaceticus C402
# [41] = system: Enterobacter cloacae ATCC 13047
# [42] = system: Pseudomonas aeruginosa H744
# [43] = system: Enterobacter cloacae C601
# [44] = system: Staphylococcus aureus K147
# [45] = system: Pseudomonas aeruginosa H547
# [46] = system: Burkholderia cepacia ATCC 25416
# [47] = system: Legionella pneumophila Lens
# [48] = system: Candida tropicalis CGMCC 2.1975
# [49] = system: Staphylococcus aureus ATCC 29213
# [50] = system: Salmonella enterica subsp. enterica serovar Typhimurium ATCC 14028
# [51] = system: Candida krusei CGMCC 2.1857
# [52] = system: Salmonella enterica subsp. enterica serovar Pullorum ATCC 7913
# [53] = system: Escherichia coli 1005
# [54] = system: Candida parapsilosis CGMCC 2.3989
# [55] = system: Staphylococcus epidermidis ATCC 12228
compound,measurement,setting,value
NC(=O)[C@H](Cc1ccccc1)NC(=O)[C@H](Cc1ccccc1)NC(=O)[C@H](Cc1ccccc1)NC(=O)[C@@H](N)Cc1ccccc1 [FFFF],MIC,[1],≥ 291 µM
same,MIC,[2],583 µM
NCCCC[C@H](NC(=O)CNC(=O)[C@H](CCCCN)NC(=O)[C@H](Cc1ccccc1)NC(=O)[C@H](CCCCN)NC(=O)[C@H](Cc1c[nH]c2ccccc12)NC(=O)[C@H](CCCN=C(N)N)NC(=O)[C@H](Cc1ccccc1)NC(=O)[C@H](CCCN=C(N)N)NC(=O)[C@H](CCCN=C(N)N)NC(=O)[C@H](Cc1ccc(O)cc1)NC(=O)[C@H](CCCCN)NC(=O)[C@H](CCCCN)NC(=O)[C@H](CS)NC(=O)CN)C(=O)N[C@@H](Cc1ccccc1)C(=O)N[C@@H](Cc1c[nH]c2ccccc12)C(=O)N[C@@H](Cc1ccccc1)C(=O)N[C@@H](Cc1c[nH]c2ccccc12)C(=O)NCC(N)=O [GCKKYRRFRWKFKGKFWFWG],MIC,[3],≥ 94.4 µM
same,MIC,[4],11.8 µM
same,MIC,[5],11.8 µM
same,MIC,[6],11.8 µM
same,MIC,[7],≥ 47.2 µM
same,MIC,[8],≥ 47.2 µM
same,MIC,[9],11.8 µM
same,MIC,[10],> 47.2 µM
same,MIC,[11],94.4 µM
same,MIC,[12],47.2 µM
same,MIC,[13],11.8 µM
same,MIC,[14],94.4 µM
same,MIC,[15],≥ 47.2 µM and 23.6 µM
same,MIC,[16],11.8 µM
same,MIC,[17],≥ 47.2 µM
same,MIC,[18],≥ 47.2 µM
same,MIC,[19],11.8 µM
same,MIC,[20],11.8 µM
CC[C@H](C)[C@H](NC(=O)[C@H](CC(C)C)NC(=O)[C@@H]1CCCN1C(=O)[C@H](CCCCN)NC(=O)[C@H](C)NC(=O)[C@@H](NC(=O)[C@@H](NC(=O)[C@@H](NC(=O)[C@@H](NC(=O)[C@H](CCCCN)NC(=O)[C@H](CCCCN)NC(=O)[C@H](C)NC(=O)[C@H](C)NC(=O)[C@H](CO)NC(=O)[C@@H](NC(=O)[C@H](CC(C)C)NC(=O)[C@H](CCCCN)NC(=O)[C@H](CCCCN)NC(=O)[C@@H](NC(=O)[C@H](Cc1ccccc1)NC(=O)[C@H](CO)NC(=O)[C@H](CCCCN)NC(=O)[C@H](Cc1c[nH]c2ccccc12)NC(=O)[C@@H](N)CCCCN)[C@@H](C)CC)[C@@H](C)O)C(C)C)C(C)C)[C@@H](C)O)[C@@H](C)O)C(=O)N[C@@H](CO)C(=O)N[C@@H](CO)C(=O)O [KWKSFIKKLTSAAKKVVTTAKPLISS],MIC,[21],0.349 µM
same,MIC,[22],22.4 µM
same,MIC,[23],1.4 µM
same,MIC,[24],1.05 µM
same,MIC,[25],0.734 µM
same,MIC,[26],0.349 µM
same,MIC,[27],1.05 µM
same,MIC,[28],5.59 µM
same,MIC,[29],0.699 µM
same,MIC,[30],5.59 µM and 11.2 µM
same,MIC,[31],22.4 µM
same,MIC,[9],22.4 µM
same,MIC,[32],22.4 µM
same,MIC,[33],> 22.4 µM
same,MIC,[34],0.699 µM
same,MIC,[35],11.2 µM
same,MIC,[36],0.699 µM
same,MIC,[14],2.8 µM and 4 µM
same,MIC,[37],11.2 µM
same,MIC,[38],5.59 µM
same,MIC,[39],0.699 µM
same,MIC,[40],2.8 µM and 1.4 µM
same,MIC,[41],0.699 µM
same,MIC,[42],0.699 µM
same,MIC,[43],2.8 µM and 1.4 µM
same,MIC,[44],22.4 µM
same,MIC,[45],1.4 µM
same,MIC,[46],22.4 µM
CC[C@H](C)[C@H](NC(=O)[C@H](CC(C)C)NC(=O)CNC(=O)[C@H](CCCCN)NC(=O)[C@@H](NC(=O)[C@@H](NC(=O)[C@H](CCC(=O)O)NC(=O)[C@@H](NC(=O)[C@@H](NC(=O)[C@H](CCCCN)NC(=O)[C@H](C)NC(=O)[C@@H](NC(=O)[C@@H](NC(=O)CNC(=O)[C@H](C)NC(=O)[C@@H](N)CCSC)C(C)C)[C@@H](C)CC)[C@@H](C)CC)C(C)C)[C@@H](C)CC)C(C)C)C(=O)N[C@@H](CC(=O)O)C(=O)N[C@@H](CCC(N)=O)C(=O)N[C@@H](Cc1ccccc1)C(=O)N[C@H](C(=O)N[C@@H](CCC(N)=O)C(=O)N[C@@H](CCCCN)C(=O)O)[C@@H](C)O [MAGVIAKIVEIVKGLIDQFTQK],MIC,[47],1.3 µM
CC(C)C[C@H](NC(=O)[C@H](CCCN=C(N)N)NC(=O)[C@H](CC(C)C)NC(=O)[C@H](CC(C)C)NC(=O)[C@H](CC(C)C)NC(=O)[C@H](CCCN=C(N)N)NC(=O)[C@H](CC(C)C)NC(=O)[C@H](CCCN=C(N)N)NC(=O)[C@@H](N)CCCN=C(N)N)C(=O)N[C@@H](CCCN=C(N)N)C(=O)N[C@@H](CCCN=C(N)N)C(N)=O [RRLRLLLRLRR],MIC,[48],2 µM
same,MIC,[49],16 µM
same,MIC,[50],4 µM
same,MIC,[51],4 µM
same,MIC,[52],2 µM
same,MIC,[53],4 µM
same,MIC,[9],4 µM
same,MIC,[11],4 µM
same,MIC,[54],≥ 64 µM
same,MIC,[55],4 µM
same,MIC,[20],8 µM
